Data reported in ChEMBL document CHEMBL5634184, “Direct Inhibition of BK Channels by Cannabidiol, One of the Principal Therapeutic Cannabinoids Derived from Cannabis sativa” (J Nat Prod, 2024).
Active and inactive are the calls of the source. The calls are words filed in the database; no cut-off is given here.

Tests used:
[1] = target: T1, Calcium-activated potassium channel subunit alpha-1 (Homo sapiens, UniProt Q12791); experiment: Inhibition of human KCNMA1 expressed in HEK293 cells assessed as reduction in amplitude current at 1 uM by inside-out configuration based patch clamp method; type: cell-based
T1 sequence (Q12791 whole entry): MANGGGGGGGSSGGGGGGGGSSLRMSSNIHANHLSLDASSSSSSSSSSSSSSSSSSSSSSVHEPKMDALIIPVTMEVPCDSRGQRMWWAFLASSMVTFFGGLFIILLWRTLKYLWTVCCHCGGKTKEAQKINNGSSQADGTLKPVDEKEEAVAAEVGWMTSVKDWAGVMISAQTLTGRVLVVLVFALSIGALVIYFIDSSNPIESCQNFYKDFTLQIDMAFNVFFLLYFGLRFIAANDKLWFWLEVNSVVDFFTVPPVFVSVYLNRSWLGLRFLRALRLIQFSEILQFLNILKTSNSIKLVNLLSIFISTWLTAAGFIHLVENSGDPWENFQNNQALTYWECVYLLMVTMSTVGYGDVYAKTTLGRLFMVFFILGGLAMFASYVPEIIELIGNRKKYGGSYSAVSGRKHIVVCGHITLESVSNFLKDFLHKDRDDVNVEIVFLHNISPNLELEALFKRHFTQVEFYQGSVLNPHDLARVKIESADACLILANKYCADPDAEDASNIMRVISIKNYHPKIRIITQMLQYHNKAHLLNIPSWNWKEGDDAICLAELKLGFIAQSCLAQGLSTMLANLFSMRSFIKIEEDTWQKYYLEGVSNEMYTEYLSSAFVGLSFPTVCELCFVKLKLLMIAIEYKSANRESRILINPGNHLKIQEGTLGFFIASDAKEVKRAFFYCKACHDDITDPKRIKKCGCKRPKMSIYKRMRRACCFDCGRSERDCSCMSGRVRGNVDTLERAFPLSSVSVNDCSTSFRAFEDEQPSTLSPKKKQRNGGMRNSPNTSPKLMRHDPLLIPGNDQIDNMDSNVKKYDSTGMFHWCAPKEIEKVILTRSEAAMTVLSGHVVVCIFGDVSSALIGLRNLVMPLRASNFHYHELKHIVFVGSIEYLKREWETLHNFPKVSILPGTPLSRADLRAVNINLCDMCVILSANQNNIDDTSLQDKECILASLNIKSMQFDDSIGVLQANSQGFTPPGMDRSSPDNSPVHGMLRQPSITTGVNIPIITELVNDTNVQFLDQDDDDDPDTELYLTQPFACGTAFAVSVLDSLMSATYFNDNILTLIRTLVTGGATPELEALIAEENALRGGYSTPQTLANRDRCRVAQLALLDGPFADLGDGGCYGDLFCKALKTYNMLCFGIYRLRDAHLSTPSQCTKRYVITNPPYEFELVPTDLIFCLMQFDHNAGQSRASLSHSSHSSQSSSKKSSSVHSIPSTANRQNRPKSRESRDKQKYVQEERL

[2] = target: T1, Calcium-activated potassium channel subunit alpha-1; experiment: Inhibition of human KCNMA1 expressed in HEK293 cells assessed as reduction in amplitude current at 10 uM by inside-out configuration based patch clamp method relative to control; type: cell-based
[3] = target: T1, Calcium-activated potassium channel subunit alpha-1; experiment: Inhibition of human KCNMA1 expressed in HEK293 cells assessed as reduction in 100+ mV pulse elicited current by inside-out configuration based patch clamp method; type: cell-based
[4] = target: T1, Calcium-activated potassium channel subunit alpha-1; experiment: Inhibition of human KCNMA1 expressed in HEK293 cells assessed as decrease in maximal conductance at 0.3 to 10 uM by inside-out configuration based patch clamp method; type: cell-based; conditions: dose 0.3-10 µM
[5] = target: T1, Calcium-activated potassium channel subunit alpha-1; experiment: Inhibition of human KCNMA1 expressed in HEK293 cells assessed as shift in activation curve to depolarized voltage (deltaV1/2) at 0.3 to 10 uM by inside-out configuration based patch clamp method; type: cell-based; conditions: dose 0.3-10 µM
[6] = target: T1, Calcium-activated potassium channel subunit alpha-1; experiment: Inhibition of human KCNMA1 expressed in HEK293 cells assessed increase in time constant value of voltage activation at 1 uM by inside-out configuration based patch clamp method; type: cell-based
[7] = target: T1, Calcium-activated potassium channel subunit alpha-1; experiment: Inhibition of human KCNMA1 expressed in HEK293 cells assessed effect on deactivation kinetics at 1 uM by inside-out configuration based patch clamp method; type: cell-based
[8] = target: T1, Calcium-activated potassium channel subunit alpha-1; experiment: Reversible inhibition of human KCNMA1 expressed in HEK293 cells at 1 uM by whole cell configuration based patch clamp method
[9] = target: T1, Calcium-activated potassium channel subunit alpha-1; experiment: Inhibition of human KCNMA1 expressed in HEK293 cells assessed as reduction in maximal conductance at 1 uM by whole cell configuration based patch clamp method
[10] = target: T1, Calcium-activated potassium channel subunit alpha-1; experiment: Inhibition of human KCNMA1 expressed in HEK293 cells assessed as shift to depolarized potential at 1 uM by whole cell configuration based patch clamp method
[11] = target: T1, Calcium-activated potassium channel subunit alpha-1; experiment: Inhibition of human KCNMA1 expressed in HEK293 cells assessed as reduction in voltage activation kinetics at 1 uM by whole cell configuration based patch clamp method
[12] = target: T1, Calcium-activated potassium channel subunit alpha-1; experiment: Inhibition of human KCNMA1 expressed in HEK293 cells assessed as decrease in open probability at 3 uM under single channel current; type: cell-based
[13] = target: T1, Calcium-activated potassium channel subunit alpha-1; experiment: Inhibition of human KCNMA1 expressed in HEK293 cells assessed as reduction in open probability at 3 uM at -40 mV relative to control; type: cell-based
[14] = target: T1, Calcium-activated potassium channel subunit alpha-1; experiment: Inhibition of human KCNMA1 expressed in HEK293 cells assessed as increase in mean closed times at 3 uM at -40 mV (reference value: 33=/-12 ms); type: cell-based
[15] = target: T1, Calcium-activated potassium channel subunit alpha-1; experiment: Inhibition of human KCNMA1 expressed in HEK293 cells assessed as reduction in unitary conductance at 3 uM (reference value: 242+/-10 pS); type: cell-based

With C=C(C)[C@@H]1CCC(C)=C[C@H]1c1c(O)cc(CCCCC)cc1O [CANNABIDIOL] the inhibition [1] was “Active”, the inhibition [2] was 100% and the IC50 [3] was 280 nM. The inhibition [4] was “Active”, the inhibition [5] was “Active” and the inhibition [6] was “Active”. For the same compound, the inhibition [7] was “inactive”, the inhibition [8] was “Active” and the inhibition [9] was “Active”. The inhibition [10] was “Active”, the inhibition [11] was “Active” and the inhibition [12] was “Active”. It also gave an inhibition [13] of 87.4%, a Time [14] of 9.11e-05 h and a Time [15] of 182 pS.
